In the supplement of paper PMC10307832:

Columns and labels:
Assay in all cases: relative viability (nuclei count vs DMSO), 5 days (fraction); higher = more cells survive
[1] = compound: COc1cccc2cc(-c3nc([C@H]4CC[C@H](C(=O)O)CC4)n4ncnc(N)c34)[nH]c12 [OSI-027] + COc1cc2c(Oc3ccc(NC(=O)C4(C(=O)Nc5ccc(F)cc5)CC4)cc3F)ccnc2cc1OCCCN1CCOCC1 [Foretinib] (partner 0.25 µM)
How it was run: (§1)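 Dosing by pin tool came one day after lung cancer cell lines were seeded in 1536-well plates, using either one drug or a fixed anchor-drug dose plus five library-drug doses (not always all listed) in √10 steps. After 5 days, nuclei were counted on 4× images. Relative viability is treated-well nuclei count divided by vehicle-well nuclei count, and values are medians of duplicate plates.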

[2] = compound: COc1cccc2cc(-c3nc([C@H]4CC[C@H](C(=O)O)CC4)n4ncnc(N)c34)[nH]c12 [OSI-027] + Nc1nc2[nH]cc(CCc3ccc(C(=O)N[C@@H](CCC(=O)O)C(=O)O)cc3)c2c(=O)[nH]1 [Pemetrexed] (partner 0.2 µM)
How it was run: as §1

[3] = compound: Cc1nc(NC(=O)N2CCC[C@H]2C(N)=O)sc1-c1ccnc(C(C)(C)C(F)(F)F)c1 [Alpelisib] + CS(=O)(=O)CCNCc1ccc(-c2ccc3ncnc(Nc4ccc(OCc5cccc(F)c5)c(Cl)c4)c3c2)o1 [Lapatinib] (partner 2 µM)
How it was run: as §1

[4] = compound: Cc1nc(NC(=O)N2CCC[C@H]2C(N)=O)sc1-c1ccnc(C(C)(C)C(F)(F)F)c1 [Alpelisib] + C[C@]1(O)C[C@@H](c2nc(-c3ccc4ccc(-c5ccccc5)nc4c3)c3c(N)nccn32)C1 [Linsitinib] (partner 1 µM)
How it was run: as §1

Cell Line | relative viability ([1]; first compound 0.01 µM) | relative viability ([1]; first compound 0.03162 µM) | relative viability ([1]; first compound 0.1 µM) | relative viability ([1]; first compound 0.3162 µM) | relative viability ([1]; first compound 1 µM) | relative viability ([2]; first compound 0.01 µM) | relative viability ([2]; first compound 0.03162 µM) | relative viability ([2]; first compound 0.1 µM) | relative viability ([2]; first compound 0.3162 µM) | relative viability ([2]; first compound 1 µM) | relative viability ([3]; first compound 0.04 µM) | relative viability ([3]; first compound 0.1265 µM) | relative viability ([3]; first compound 0.4 µM) | relative viability ([3]; first compound 1.265 µM) | relative viability ([3]; first compound 4 µM) | relative viability ([4]; first compound 0.04 µM) | relative viability ([4]; first compound 0.1265 µM) | relative viability ([4]; first compound 0.4 µM) | relative viability ([4]; first compound 1.265 µM) | relative viability ([4]; first compound 4 µM)
NCI-H1395 | 0.965 | 0.903 | 0.959 | 0.847 | 0.637 | 0.736 | 0.826 | 0.643 | 0.74 | 0.74 | 0.88 | 0.909 | 1.15 | 0.75 | 0.921 | 1.12 | 1.17 | 1.42 | 0.82 | 1.18
201T | – | 1.09 | 1.07 | 0.944 | 0.459 | 0.316 | 0.348 | 0.313 | 0.332 | 0.305 | 1.02 | 0.988 | 1.02 | 1.01 | 0.945 | 0.93 | 0.936 | 0.989 | 0.806 | 0.917
NCI-H2405 | 1.02 | 0.968 | 0.918 | 0.734 | 0.537 | 0.854 | 1.01 | 0.922 | 0.85 | 0.448 | 1.07 | 0.945 | 1.18 | 0.783 | 0.781 | 1.07 | 0.935 | 1.02 | 0.781 | 0.847
RERF-LC-KJ | 0.869 | 0.885 | 0.919 | 0.622 | 0.445 | 0.466 | 0.48 | 0.464 | 0.463 | 0.375 | 0.795 | 0.773 | 0.867 | 0.64 | 0.735 | 0.816 | 0.878 | 0.823 | 0.734 | 0.749
NCI-H596 | 0.834 | 0.923 | 0.781 | 0.59 | 0.602 | 0.436 | 0.576 | 0.463 | 0.475 | 0.504 | 0.98 | 1.02 | 0.825 | 0.54 | 0.413 | 1.05 | 1.03 | 0.867 | 0.555 | 0.477
NCI-H1993 | 0.749 | 0.633 | 0.549 | 0.487 | 0.575 | 0.533 | 0.41 | 0.522 | 0.465 | 0.45 | 0.775 | 0.676 | 0.913 | 0.774 | 0.711 | 0.732 | 0.737 | 0.762 | 0.702 | 0.749
EPLC-272H | 0.712 | 0.498 | 0.594 | 0.41 | 0.236 | 0.357 | 0.279 | 0.263 | 0.273 | 0.338 | 0.859 | 0.842 | 0.805 | 0.7 | 0.525 | 1.1 | 0.977 | 1.34 | 0.937 | 0.893
NCI-H1915 | 1.23 | 1.14 | 1.12 | 1.03 | 0.582 | 0.546 | 0.516 | 0.47 | 0.449 | 0.536 | 1.01 | 0.979 | 0.957 | 0.949 | 0.944 | 1.11 | 1.1 | 1.17 | 1.02 | 1.08
